Measurements reported in US20240140952A1, “INHIBITORS AND DEGRADERS OF JANUS KINASE 2” (H. LEE MOFFITT CANCER CENTER AND RESEARCH INSTITUTE, INC., priority 2021, published 2024).
Read-outs that look alike come from different tables or passages of the source.

What was measured:
JAK2 KD [1] = molecular target: T1, JAK2 KD (Homo sapiens (Human), UniProt O60674); assay: Differential scanning fluorimetry (DSF) binding studies with purified JAK2 KD
Source text: To assess the suitability of purified JAK2 KD for SAR studies for drug development campaigns, three series of JAK2 inhibitors (FIG. 2A-C) were subjected to binding studies by differential scanning fluorimetry (DSF).

JAK2 = JAK2 (Homo sapiens (Human), UniProt O60674); assay: Radiometric assay of enzymatic JAK2 activity by Reaction Biology Corp.; assay type: biochemical
Sequence of JAK2 (O60674 whole entry): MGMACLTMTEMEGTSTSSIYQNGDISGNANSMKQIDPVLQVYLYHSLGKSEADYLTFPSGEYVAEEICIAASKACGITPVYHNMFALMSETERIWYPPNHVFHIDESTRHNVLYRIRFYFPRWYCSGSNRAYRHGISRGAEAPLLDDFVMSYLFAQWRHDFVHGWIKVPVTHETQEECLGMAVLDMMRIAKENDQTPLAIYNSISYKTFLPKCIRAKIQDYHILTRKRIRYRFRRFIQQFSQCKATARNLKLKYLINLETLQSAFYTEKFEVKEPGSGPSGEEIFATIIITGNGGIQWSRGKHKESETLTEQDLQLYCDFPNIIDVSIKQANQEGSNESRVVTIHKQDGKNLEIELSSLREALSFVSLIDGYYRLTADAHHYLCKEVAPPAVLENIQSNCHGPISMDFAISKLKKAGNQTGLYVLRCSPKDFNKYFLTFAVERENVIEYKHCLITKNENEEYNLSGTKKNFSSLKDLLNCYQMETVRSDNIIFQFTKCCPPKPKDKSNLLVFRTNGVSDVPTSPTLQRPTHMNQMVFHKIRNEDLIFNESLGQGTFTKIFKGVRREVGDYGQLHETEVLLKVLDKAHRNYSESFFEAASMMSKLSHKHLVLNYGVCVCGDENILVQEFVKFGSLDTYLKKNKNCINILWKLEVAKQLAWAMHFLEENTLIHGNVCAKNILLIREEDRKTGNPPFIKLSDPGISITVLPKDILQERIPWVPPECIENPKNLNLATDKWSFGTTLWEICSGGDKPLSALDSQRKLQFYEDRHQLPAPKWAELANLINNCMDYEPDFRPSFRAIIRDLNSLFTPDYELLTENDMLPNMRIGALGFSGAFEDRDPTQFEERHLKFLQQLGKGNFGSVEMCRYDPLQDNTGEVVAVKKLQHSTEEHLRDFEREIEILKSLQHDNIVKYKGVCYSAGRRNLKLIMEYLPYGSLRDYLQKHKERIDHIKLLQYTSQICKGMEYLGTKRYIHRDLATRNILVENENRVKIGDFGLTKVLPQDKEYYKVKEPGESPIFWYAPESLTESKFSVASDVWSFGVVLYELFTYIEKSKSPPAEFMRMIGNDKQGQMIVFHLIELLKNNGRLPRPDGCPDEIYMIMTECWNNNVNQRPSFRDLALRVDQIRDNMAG

UKE-1 cells = assay: UKE-1 cell viability assay (CellTiter Blue); settings: UKE1, 72 h, read-out: UKE-1 cell growth inhibition IC50
Experimental: Suspension cells were seeded at 20,000 cells per well. […] Cell viability data were analyzed using GraphPad Prism6.

SRC = SRC (Homo sapiens (Human), UniProt P12931); settings: selectivity; cited from earlier work
Sequence of SRC (P12931 whole entry, species assumed): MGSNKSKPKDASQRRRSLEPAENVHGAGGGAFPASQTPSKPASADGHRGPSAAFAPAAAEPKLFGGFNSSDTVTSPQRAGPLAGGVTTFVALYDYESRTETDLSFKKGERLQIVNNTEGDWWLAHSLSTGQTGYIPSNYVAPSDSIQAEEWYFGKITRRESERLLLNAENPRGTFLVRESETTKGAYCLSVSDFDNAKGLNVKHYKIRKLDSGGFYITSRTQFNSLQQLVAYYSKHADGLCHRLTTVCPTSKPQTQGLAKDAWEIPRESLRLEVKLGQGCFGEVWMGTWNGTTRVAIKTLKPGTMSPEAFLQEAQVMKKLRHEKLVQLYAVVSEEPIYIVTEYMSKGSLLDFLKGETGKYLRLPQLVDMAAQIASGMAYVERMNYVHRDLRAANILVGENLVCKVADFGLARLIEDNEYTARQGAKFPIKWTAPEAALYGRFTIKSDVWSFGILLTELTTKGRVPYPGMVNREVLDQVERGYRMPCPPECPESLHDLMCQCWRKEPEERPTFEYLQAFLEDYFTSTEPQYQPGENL

JAK2 KD [2] = molecular target: T1, JAK2 KD; assay: Transient expression of JAK2 KD in Expi293F cells, immunoblot densitometry; assay type: cell-based
Experimental: The construct was expressed using a CMV promoter and contained a Hiss N-terminal affinity tag followed by a TEV cleavage site. Expi293F cells (Invitrogen) were grown, maintained, and treated in shaking culture at 37° C. with 8% CO2 in Expi293 medium (Invitrogen). Recombinant JAK2 was expressed in Expi293F cells using Transporter 5 transfection reagent as described by the manufacturer (PolySciences). One hour after adding the plasmid:transfection complex, varying concentrations of JAK2 inhibitor or transcription enhancer were added. The transfection proceeded for 24 hours before harvest.
Previously, JAK2 KD has been predominantly purified from insect cells; but this process takes several weeks to generate and amplify the baculovirus to produce large enough quantities of purified protein.

[3] = read-out: Biochemical inhibition IC50
[4] = radiometric assay, ± SD from two data sets, read-out: Biochemical inhibition IC50

T1 sequence (O60674 840-1132): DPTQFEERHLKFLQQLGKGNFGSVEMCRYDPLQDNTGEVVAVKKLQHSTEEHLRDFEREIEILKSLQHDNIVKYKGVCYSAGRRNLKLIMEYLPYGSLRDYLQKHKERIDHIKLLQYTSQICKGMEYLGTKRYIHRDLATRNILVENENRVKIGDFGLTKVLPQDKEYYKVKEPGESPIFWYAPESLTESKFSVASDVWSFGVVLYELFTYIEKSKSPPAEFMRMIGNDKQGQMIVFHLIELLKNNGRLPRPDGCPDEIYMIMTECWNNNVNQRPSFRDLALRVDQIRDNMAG

Row | SMILES | IC50 (JAK2; [3]) [nM] | IC50 (UKE-1 cells) [nM] | also measured
1 | N#CCC(C1CCCC1)n1cc(-c2nc(Nc3ccc(C4CCNCC4)cc3)nc3[nH]ccc23)cn1 (racemic) [(rac)-1] | – | – | Binding potential ΔTm (JAK2 KD [1]): 11.8 ± 0.05 °C
2 | N#CC[C@H](C1CCCC1)n1cc(-c2nc(Nc3ccc(C4CCNCC4)cc3)nc3[nH]ccc23)cn1 [(R)-1, (R)-3-Cyclopentyl-3-(4-(2-((4-(piperidin-4-yl)phenyl)amino)-7H-pyrrolo[2,3-d]pyrimidin-4-yl)-1H-pyrazol-1-yl)propanenitrile] | 0.15 ± 0.03 | – | IC50 (JAK2): < 0.15 nM
3 | N#CC[C@@H](C1CCCC1)n1cc(-c2nc(Nc3ccc(C4CCNCC4)cc3)nc3[nH]ccc23)cn1 [(S)-1, (S)-3-Cyclopentyl-3-(4-(2-((4-(piperidin-4-yl)phenyl)amino)-7H-pyrrolo[2,3-d]pyrimidin-4-yl)-1H-pyrazol-1-yl)propanenitrile] | 0.099 ± 0.02 | – | –
4 | N#CCCn1cc(-c2nc(Nc3ccc(C4CCNCC4)cc3)nc3[nH]ccc23)cn1 [Compound 2, 3-(4-(2-((4-(Piperidin-4-yl)phenyl)amino)-7H-pyrrolo[2,3-d]pyrimidin-4-yl)-1H-pyrazol-1-yl)propanenitrile] | 0.13 ± 0.048 | 4500 ± 5900 | –
5 | C=CCCn1cc(-c2nc(Nc3ccc(C4CCNCC4)cc3)nc3[nH]ccc23)cn1 [Compound 3, 4-(1-(But-3-en-1-yl)-1H-pyrazol-4-yl)-N-(4-(piperidin-4-yl)phenyl)-7H-pyrrolo[2,3-d]pyrimidin-2-amine] | – | 620 ± 40 | IC50 (JAK2; [4]): 0.26 ± 0.04 nM
6 | Cc1cnc(Nc2ccc(C3CCN(C)CC3)c(F)c2)nc1Nc1ccc(F)c(NS(=O)(=O)C(C)(C)C)c1 [Compound 4, N-(2-Fluoro-5-((2-((3-fluoro-4-(1-methylpiperidin-4-yl)phenyl)amino)-5-methylpyrimidin-4-yl)amino)phenyl)-2-methylpropane-2-sulfonamide] | – | – | IC50 (JAK2; [4]): 6.5 ± 3.5 nM
7 | Cc1cnc(Nc2cc(F)c(C3CCN(C)CC3)c(F)c2)nc1Nc1ccc(F)c(NS(=O)(=O)C(C)(C)C)c1 [Compound 5, N-(5-((2-((3,5-Difluoro-4-(1-methylpiperidin-4-yl)phenyl)amino)-5-methylpyrimidin-4-yl)amino)-2-fluorophenyl)-2-methylpropane-2-sulfonamide] | – | 150 ± 10 | IC50 (JAK2; [4]): 8.2 ± 5.7 nM
8 | Cc1cnc(Nc2ccc(C3CCN(C)CC3)c(F)c2)nc1Nc1ccc2c(c1)N(S(=O)(=O)C(C)(C)C)CC2 [Compound 7, N^4-(1-(tert-Butylsulfonyl)indolin-6-yl)-N^2-(3-fluoro-4-(1-methylpiperidin-4-yl)phenyl)-5-methylpyrimidine-2,4-diamine] | 3.6 ± 1.1 | 210 ± 20 | –
9 | Cc1cnc(Nc2ccc(OCCN3CCCC3)cc2)nc1Nc1cccc(S(=O)(=O)NC(C)(C)C)c1 [Fedratinib, reference compound] | – | 660 ± 60 | –
10 | N#CC[C@H](C1CCCC1)n1cc(-c2ncnc3[nH]ccc23)cn1 [Ruxolitinib, reference compound] | – | – | Inhibitory activity for JAK2 over SRC (SRC): three orders of magnitudes higher
11 | CCCC(=O)O [butyric acid] | – | – | JAK2 KD expression increase over ruxolitinib alone (JAK2 KD [2]): four-fold
12 | CCCC(CCC)C(=O)O [valproic acid] | – | – | JAK2 KD expression increase over ruxolitinib alone (JAK2 KD [2]; HDAC inhibitor during expression alongside ruxolitinib): four-fold
